Tests used:
Format in all cases: cell-based
[1] = target: T1, Peroxisome proliferator-activated receptor alpha (Homo sapiens, UniProt Q07869); test: Transactivation of human PPARalpha expressed in CHO-K1 cells
T1 sequence (Q07869 whole entry): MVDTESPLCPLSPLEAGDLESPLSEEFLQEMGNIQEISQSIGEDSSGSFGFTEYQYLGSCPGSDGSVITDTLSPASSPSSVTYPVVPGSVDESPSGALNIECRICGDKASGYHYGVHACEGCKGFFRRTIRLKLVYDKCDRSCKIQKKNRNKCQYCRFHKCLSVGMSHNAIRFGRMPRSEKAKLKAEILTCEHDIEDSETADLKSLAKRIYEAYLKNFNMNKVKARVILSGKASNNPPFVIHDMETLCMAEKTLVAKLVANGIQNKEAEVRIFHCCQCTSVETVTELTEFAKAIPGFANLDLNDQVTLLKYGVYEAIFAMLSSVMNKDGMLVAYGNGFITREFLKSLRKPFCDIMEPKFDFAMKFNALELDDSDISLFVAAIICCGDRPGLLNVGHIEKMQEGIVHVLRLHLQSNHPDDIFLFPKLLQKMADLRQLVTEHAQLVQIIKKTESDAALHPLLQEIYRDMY

[2] = target: T2, Peroxisome proliferator-activated receptor delta (Homo sapiens, UniProt Q03181); test: Transactivation of human PPARdelta expressed in CHO-K1 cells
T2 sequence (Q03181 whole entry): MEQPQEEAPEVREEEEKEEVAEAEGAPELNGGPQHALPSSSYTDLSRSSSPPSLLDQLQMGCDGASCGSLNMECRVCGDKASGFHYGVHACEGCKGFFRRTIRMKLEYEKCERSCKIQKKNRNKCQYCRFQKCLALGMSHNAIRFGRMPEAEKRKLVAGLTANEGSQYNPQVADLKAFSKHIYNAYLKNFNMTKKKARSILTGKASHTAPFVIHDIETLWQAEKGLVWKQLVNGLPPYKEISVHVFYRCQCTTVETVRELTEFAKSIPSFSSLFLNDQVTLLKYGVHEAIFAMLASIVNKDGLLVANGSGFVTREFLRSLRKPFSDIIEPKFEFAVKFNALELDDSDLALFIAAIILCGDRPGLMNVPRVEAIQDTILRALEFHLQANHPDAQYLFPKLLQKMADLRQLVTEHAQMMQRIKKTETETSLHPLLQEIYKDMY

[3] = target: T3, Peroxisome proliferator-activated receptor gamma (Homo sapiens, UniProt P37231); test: Transactivation of human PPARgamma expressed in CHO-K1 cells
T3 sequence (P37231 whole entry): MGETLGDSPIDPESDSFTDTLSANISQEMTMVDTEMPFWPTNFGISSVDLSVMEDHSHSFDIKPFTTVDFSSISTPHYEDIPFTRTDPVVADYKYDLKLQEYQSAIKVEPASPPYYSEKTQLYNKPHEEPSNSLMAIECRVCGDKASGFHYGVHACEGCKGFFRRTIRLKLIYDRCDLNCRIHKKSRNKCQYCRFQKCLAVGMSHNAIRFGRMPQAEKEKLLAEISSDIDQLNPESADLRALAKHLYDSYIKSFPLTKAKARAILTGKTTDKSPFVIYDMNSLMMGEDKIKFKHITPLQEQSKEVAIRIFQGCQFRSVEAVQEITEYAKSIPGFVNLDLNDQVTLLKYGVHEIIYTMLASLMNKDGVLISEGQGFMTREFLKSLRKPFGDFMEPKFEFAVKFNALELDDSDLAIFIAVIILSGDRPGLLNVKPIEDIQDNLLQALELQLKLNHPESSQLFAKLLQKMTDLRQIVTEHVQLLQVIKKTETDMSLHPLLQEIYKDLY

[4] = target: T2, Peroxisome proliferator-activated receptor delta; test: Transactivation of human PPARdelta expressed in CHO-K1 cells at 30 uM

EC50 [1] | EC50 [2] | EC50 [3] | EC50 [4] | SMILES
700 nM | 470 nM | 5900 nM |  | COc1ccc(-c2cccc(C(=O)O)c2)cc1CNC(=O)c1ccc(Oc2ccccc2)cc1
23 nM | 1800 nM | > 11000 nM |  | COc1ccc(-c2nc(C)c(C(=O)N[C@H]3CCCN(c4cccc(C(=O)O)c4)C3)s2)cc1
810 nM | > 17000 nM | > 15000 nM |  | Cc1nc(-c2ccc(Cl)cc2)sc1C(=O)NCC1CN(c2cccc(C(=O)O)c2)CCO1 (centres undefined)
250 nM | > 6300 nM | > 9700 nM |  | Cc1nc(-c2ccc(Cl)cc2)sc1COC1CCCN(c2cccc(C(=O)O)c2)C1 (centres undefined)
1200 nM |  | > 10000 nM | Not Active | Cc1nc(-c2ccc(Cl)cc2)sc1C(=O)N[C@@H]1CCCN(c2cccc(C(=O)O)c2)C1
> 6000 nM |  |  |  | Cc1nc(-c2ccc(Cl)cc2)sc1C(=O)NC1CCCN(c2ccccc2C(=O)O)C1 (centres undefined)
72 nM | 7100 nM | > 19000 nM |  | Cc1nc(-c2ccccc2)sc1C(=O)N[C@H]1CCCN(c2cccc(C(=O)O)c2)C1
3400 nM |  |  |  | Cc1nc(-c2ccc(Cl)cc2)sc1C(=O)N(C)C1CCCN(c2cccc(C(=O)O)c2)C1 (centres undefined)
26 nM | 2400 nM | > 5200 nM |  | Cc1nc(-c2cccc(Cl)c2)sc1C(=O)N[C@H]1CCCN(c2cccc(C(=O)O)c2)C1
5 nM | > 4200 nM | > 10000 nM |  | Cc1nc(-c2ccc(Cl)cc2)sc1C(=O)NC1CCCN(c2cccc(C(=O)O)c2)C1 (centres undefined)
1500 nM |  |  |  | Cc1nc(-c2ccc(Cl)cc2)sc1C(=O)NC1CCCN(c2ccc(C(=O)O)cc2)C1 (centres undefined)
2400 nM | > 13000 nM | > 13000 nM |  | Cc1nc(-c2ccc(Cl)cc2)sc1CNC1CCCN(c2cccc(C(=O)O)c2)C1 (centres undefined)
> 14000 nM |  |  |  | Cc1nc(-c2ccc(Cl)cc2)sc1CNC(=O)C1CCCN(c2cccc(C(=O)O)c2)C1 (centres undefined)
21 nM | 8800 nM | > 9800 nM |  | Cc1nc(-c2ccc(F)cc2)sc1C(=O)N[C@H]1CCCN(c2cccc(C(=O)O)c2)C1
4400 nM |  |  |  | O=C(O)c1cccc(N2CCCC(CNC(=O)c3ccc(Oc4ccc(F)cc4)cc3)C2)c1 (centres undefined)
53 nM | 1900 nM | > 6800 nM |  | Cc1nc(-c2ccccc2Cl)sc1C(=O)N[C@H]1CCCN(c2cccc(C(=O)O)c2)C1
> 3400 nM |  |  |  | Cc1sc(-c2ccc(Cl)cc2)nc1C(=O)N[C@H]1CCCN(c2cccc(C(=O)O)c2)C1
810 nM | > 6800 nM | > 6800 nM |  | Cc1nc(-c2ccc(Cl)cc2)sc1CCC1CCCN(c2cccc(C(=O)O)c2)C1 (centres undefined)
37 nM | > 11000 nM | > 13000 nM |  | Cc1nc(-c2ccc([N+](=O)[O-])cc2)sc1C(=O)N[C@H]1CCCN(c2cccc(C(=O)O)c2)C1
120 nM | > 8100 nM | > 9800 nM |  | Cc1nc(-c2ccc(Cl)cc2)sc1/C=C/C1CCCN(c2cccc(C(=O)O)c2)C1 (centres undefined)
760 nM |  | > 4900 nM | Not Active | Cc1nc(-c2ccc(Cl)cc2)sc1C(=O)NCC1CCCN(c2cccc(C(=O)O)c2)C1 (centres undefined)
280 nM |  | > 13000 nM | Not Active | Cc1nc(-c2ccc(Cl)cc2)sc1NC(=O)C1CCCN(c2cccc(C(=O)O)c2)C1 (centres undefined)
6 nM | 3100 nM | > 11000 nM |  | Cc1ccc(-c2nc(C)c(C(=O)N[C@H]3CCCN(c4cccc(C(=O)O)c4)C3)s2)cc1
> 12000 nM |  |  |  | Cc1nc(-c2ccc(Cl)cc2)sc1CC(=O)NC1CCCN(c2cccc(C(=O)O)c2)C1 (centres undefined)
13 nM | 1920 nM | 2500 nM |  | CC[C@@H](Cc1ccc(OC)c(C(=O)NCc2ccc(Oc3ccc(F)cc3)cc2)c1)C(=O)O
> 3500 nM |  |  |  | Cc1nc(-c2ccc(Cl)cc2)sc1C(=O)NCC1CCN(c2cccc(C(=O)O)c2)CC1
1500 nM | > 13000 nM | > 12000 nM |  | Cc1nc(-c2ccc(Cl)cc2)oc1C(=O)N[C@H]1CCCN(c2cccc(C(=O)O)c2)C1
850 nM |  | > 10000 nM | Not Active | Cc1nc(-c2ccc(Cl)cc2)sc1C(=O)NCC1CCN(c2cccc(C(=O)O)c2)C1 (centres undefined)
700 nM |  |  |  | Cc1nc(-c2ccc(Cl)cc2)sc1C(=O)NCC1CCCCN(c2cccc(C(=O)O)c2)C1 (centres undefined)

Reference: ChEMBL document CHEMBL1933028, “Discovery of cyclic amine-substituted benzoic acids as PPARα agonists” (Bioorg Med Chem Lett, 2012)
